From PubChem BioAssay AID256 (DTP/NCI, 2004)
Where “and” joins values, the source holds several entries; their conditions need not be identical. Identical values can stand only once. Toxic doses and inconclusive results are not listed.

Tested on: CD2F1 mice, L1210 leukemia ip, survival T/C
Assay: NCI In Vivo Anticancer Drug Screen. Data for tumor model L1210 Leukemia (intraperitoneal) in CD2F1 (CDF1) mice
Settings: endpoint: mean survival time, higher = longer survival
In short: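 Mice carrying a transplanted tumor received test compound or vehicle alone. The value is the measurement in the treated group divided by that in the vehicle-treated control group.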

[1] = dose: 100.0 mg/kg/injection, schedule: Q04DX003 (ip), vehicle: saline
[2] = dose: 50.0 mg/kg/injection, schedule: Q01DX009 (ip), vehicle: saline with Tween-80
[3] = dose: 200.0 mg/kg/injection, schedule: Q04DX003 (ip), vehicle: saline
[4] = dose: 400.0 mg/kg/injection, schedule: Q04DX003 (ip), vehicle: saline
[5] = dose: 100.0 mg/kg/injection, schedule: Q04DX003 (ip), vehicle: saline with Tween-80
[6] = dose: 25.0 mg/kg/injection, schedule: Q01DX009 (ip), vehicle: saline with Tween-80

## CC/C(=C(/CC)c1ccc(OP(N)(=O)N(CCCl)CCCl)cc1)c1ccc(OP(N)(=O)N(CCCl)CCCl)cc1 (stereo not given)
dose: 90.0 mg/kg/injection, schedule: Q01DX001 (ip), vehicle: DMSO
  T/C: 100 % of control
dose: 133.0 mg/kg/injection, schedule: Q01DX001 (ip), vehicle: DMSO
  T/C: 98 % of control
dose: 200.0 mg/kg/injection, schedule: Q01DX001 (ip), vehicle: DMSO
  T/C: 102 % of control
dose: 300.0 mg/kg/injection, schedule: Q01DX001 (ip), vehicle: DMSO
  T/C: 113 % of control

## Cc1ccc(/C(C#N)=C2C=C(Br)/C(=N\O)C=C/2Cl)cc1
dose: 25.0 mg/kg/injection, schedule: Q01DX009 (ip), vehicle: acetone
  T/C: 96 % of control
dose: 50.0 mg/kg/injection, schedule: Q01DX009 (ip), vehicle: acetone
  T/C: 98 % of control
dose: 100.0 mg/kg/injection, schedule: Q01DX009 (ip), vehicle: acetone
  T/C: 98 % of control

## CCCOP(=O)(N1CC1(C)C)N1CC1(C)C (stereo not given)
dose: 6.3 mg/kg/injection, schedule: Q04DX003 (ip), vehicle: saline
  T/C: 101 % of control
dose: 12.5 mg/kg/injection, schedule: Q04DX003 (ip), vehicle: saline
  T/C: 101 % of control
dose: 25.0 mg/kg/injection, schedule: Q01DX009 (ip), vehicle: saline
  T/C: 119 % of control
dose: 25.0 mg/kg/injection, schedule: Q04DX003 (ip), vehicle: saline
  T/C: 124 % of control
dose: 50.0 mg/kg/injection, schedule: Q01DX009 (ip), vehicle: saline
  T/C: 188 % of control
dose: 100.0 mg/kg/injection, schedule: Q01DX009 (ip), vehicle: saline
  T/C: 156 % of control and 186 % of control
[1]
  T/C: 124 % of control

## c1ccc2c(NCCCCCCCCNc3c4ccccc4nc4ccccc34)c3ccccc3nc2c1
dose: 1.25 mg/kg/injection, schedule: Q01DX009 (ip), vehicle: Klucel (hydroxypropylcellulose) (HPC)
  T/C: 120 % of control
dose: 2.5 mg/kg/injection, schedule: Q01DX009 (ip), vehicle: Klucel (hydroxypropylcellulose) (HPC)
  T/C: 114 % of control and 100 % of control
dose: 5.0 mg/kg/injection, schedule: Q01DX009 (ip), vehicle: Klucel (hydroxypropylcellulose) (HPC)
  T/C: 119 % of control and 120 % of control and 111 % of control
dose: 10.0 mg/kg/injection, schedule: Q01DX009 (ip), vehicle: Klucel (hydroxypropylcellulose) (HPC)
  T/C: 109 % of control and 111 % of control
dose: 20.0 mg/kg/injection, schedule: Q01DX009 (ip), vehicle: Klucel (hydroxypropylcellulose) (HPC)
  T/C: 117 % of control

## O=c1cc(-c2ccccc2)ss1
dose: 100.0 mg/kg/injection, schedule: Q04DX003 (ip), vehicle: Klucel (hydroxypropylcellulose) (HPC)
  T/C: 104 % of control
dose: 200.0 mg/kg/injection, schedule: Q04DX003 (ip), vehicle: Klucel (hydroxypropylcellulose) (HPC)
  T/C: 100 % of control
dose: 400.0 mg/kg/injection, schedule: Q04DX003 (ip), vehicle: Klucel (hydroxypropylcellulose) (HPC)
  T/C: 105 % of control

## CC1CCCCC1O (stereo not given)
dose: 50.0 mg/kg/injection, schedule: Q01DX001 (ip), vehicle: carboxymethylcellulose (CMC)
  T/C: 97 % of control
[2]
  T/C: 103 % of control
dose: 100.0 mg/kg/injection, schedule: Q01DX001 (ip), vehicle: carboxymethylcellulose (CMC)
  T/C: 108 % of control
dose: 100.0 mg/kg/injection, schedule: Q01DX009 (ip), vehicle: saline with Tween-80
  T/C: 103 % of control
[1]
  T/C: 103 % of control
dose: 200.0 mg/kg/injection, schedule: Q01DX001 (ip), vehicle: carboxymethylcellulose (CMC)
  T/C: 92 % of control
dose: 200.0 mg/kg/injection, schedule: Q01DX009 (ip), vehicle: saline with Tween-80
  T/C: 95 % of control
[3]
  T/C: 103 % of control
dose: 400.0 mg/kg/injection, schedule: Q01DX001 (ip), vehicle: carboxymethylcellulose (CMC)
  T/C: 100 % of control
[4]
  T/C: 95 % of control

## COc1cc2c(cc1OC)C(=O)C(C)(c1ccccc1)NC2 (stereo not given)
[5]
  T/C: 96 % of control
dose: 200.0 mg/kg/injection, schedule: Q04DX003 (ip), vehicle: saline with Tween-80
  T/C: 96 % of control
dose: 400.0 mg/kg/injection, schedule: Q04DX003 (ip), vehicle: saline with Tween-80
  T/C: 94 % of control

## COc1ccc(C=C2C(=O)C=CC2=O)cc1OC
dose: 5.0 mg/kg/injection, schedule: Q04DX002 (ip), vehicle: saline with Tween-80
  T/C: 103 % of control
dose: 10.0 mg/kg/injection, schedule: Q04DX002 (ip), vehicle: saline with Tween-80
  T/C: 103 % of control

## O=C(/C=C/c1ccccc1O)/C=C/c1ccccc1O
[6]
  T/C: 107 % of control
dose: 25.0 mg/kg/injection, schedule: Q04DX003 (ip), vehicle: saline with Tween-80
  T/C: 111 % of control
[2]
  T/C: 94 % of control
dose: 50.0 mg/kg/injection, schedule: Q04DX003 (ip), vehicle: saline with Tween-80
  T/C: 101 % of control
[5]
  T/C: 105 % of control

## C(=C(\C[P+](c1ccccc1)(c1ccccc1)c1ccccc1)c1ccccc1)/c1ccccc1
dose: 1.25 mg/kg/injection, schedule: Q01DX009 (ip), vehicle: saline with Tween-80
  T/C: 104 % of control
dose: 2.5 mg/kg/injection, schedule: Q01DX009 (ip), vehicle: saline with Tween-80
  T/C: 102 % of control
dose: 5.0 mg/kg/injection, schedule: Q01DX009 (ip), vehicle: saline with Tween-80
  T/C: 97 % of control

## COc1cc(Cl)ccc1NC(=O)OCCOc1ccc(Br)cc1
dose: 12.5 mg/kg/injection, schedule: Q01DX009 (ip), vehicle: saline with Tween-80
  T/C: 91 % of control
[6]
  T/C: 87 % of control
[2]
  T/C: 119 % of control and 91 % of control

## CCNc1cc(Cl)c(C(=O)O)cc1[N+](=O)[O-]
[1]
  T/C: 105 % of control
[3]
  T/C: 110 % of control
[4]
  T/C: 115 % of control

## COCCNC(=S)SCCN(C(C)C)C(C)C
dose: 100.0 mg/kg/injection, schedule: Q01DX001 (sc), vehicle: olive oil, sesame oil, peanut oil
  T/C: 110 % of control

## C=C(Cl)CN(CCCC(=O)O)c1ccccc1
dose: 25.0 mg/kg/injection, schedule: Q01DX009 (ip), vehicle: other
  T/C: 95 % of control
dose: 50.0 mg/kg/injection, schedule: Q01DX009 (ip), vehicle: other
  T/C: 89 % of control
dose: 100.0 mg/kg/injection, schedule: Q01DX009 (ip), vehicle: other
  T/C: 97 % of control
